Laboratory results from patent US8921372B2, “Inhibitors of hepatitis C virus” (Theravance Biopharma R&D IP, LLC, priority 2010, dated 2014).
Read-outs that look alike come from different tables or passages of the source.

What was measured:
[1] = test system: HCV genotype 1a replicon cell line (APC89; Huh7.5 cell background); experiment: HCV Genotype 1a Replicon Assay (NS3-specific protease activity readout); assay type: cell-based; details: Hepatitis C virus
Method in brief: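 EC50 values came from a 4-parameter robust fit of fluorescence (ex 340, em 509 nm) produced by NS3-specific protease in lysates, assayed with 15 μM FRET substrate for 20 min at 37° C, after 48 or 72 hours of compound exposure (0.5% DMSO) of Huh7.5-derived APC89 genotype 1a replicon cells.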

[2] = test system: HCV genotype 1b replicon cell line (APC144; Huh7 cell background); experiment: HCV Genotype 1b Replicon Assay (Renilla luciferase readout); assay type: cell-based; details: Hepatitis C virus, Huh-7; read-out: Genotype 1b (pEC50 class, HCV genotype 1b replicon assay) (converted)
Method in brief: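 Reported as pEC50 derived from a 4-parameter fit of Renilla luciferase activity against concentration. Replicon cells (APC144, Huh7 background) were exposed to compound for 48 h in G418-free medium with final 0.5% DMSO, after seeding at 10,000 cells/well and 4 h adherence.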

[3] = 72 hour incubation, read-out: Genotype 1a (pEC50 class, HCV genotype 1a replicon assay) (converted)
[4] = compounds incubated for 48 hours, read-out: Genotype 1a (pEC50 class, HCV genotype 1a replicon assay), * results (converted)

| SMILES | EC50 [1, 3] [nM] | EC50 [2] [nM] | EC50 [1, 4] [nM] |
| --- | --- | --- | --- |
| CNC(=O)N1CCN(c2ccc(C(=O)Nc3cc(OC(F)(F)F)c(-c4ccc(-c5c[nH]c([C@@H]6CCCN6C(=O)[C@@H](NC(=O)OC)C(C)C)n5)cc4)cc3Cl)cn2)[C@H](C)C1 [Example 27-68] | < 0.1 | < 0.1 | – |
| CNC(=O)N1CCC[C@@]1(C)C(=O)N1CCN(c2ccc(C(=O)Nc3cc(OC(F)(F)F)c(-c4ccc(-c5c[nH]c([C@@H]6CCCN6C(=O)[C@@H](NC(=O)OC)C(C)C)n5)cc4)cc3F)cn2)[C@H](C)C1 [Example 27-47] | < 0.1 | < 0.1 | – |
| COC(=O)N[C@H](C(=O)N1CCC[C@H]1c1nc(-c2ccc(-c3ccc(NC(=O)c4ccc(N5CCN(C(=O)C6CC6)C[C@H]5C)nc4)cc3OC(F)(F)F)cc2)c[nH]1)C(C)C [Example 28] | 0.1 to 1 | < 0.1 | – |
| COC(=O)N[C@H](C(=O)N1CCC[C@H]1c1nc(-c2ccc(-c3c(F)cc(NC(=O)c4ccc(N5CCN(C(=O)c6c[nH]cn6)C[C@H]5C)nc4)cc3F)cc2)c[nH]1)C(C)C [Example 44] | 0.1 to 1 | < 0.1 | – |
| COC(=O)N[C@H](C(=O)N1CCC[C@H]1c1nc(-c2ccc(-c3ccc(NC(=O)c4ccc(N5CCN(C(=O)OC(C)(C)C)CC5)cc4)cc3)cc2)c[nH]1)C(C)C [Example 3, 4-[4-(4′-{2-[(S)-1-((S)-2-Methoxycarbonylamino-3-methyl-butyryl)-pyrrolidin-2-yl]-1H-imidazol-4-yl}-biphenyl-4-ylcarbamoyl)-phenyl]-piperazine-1-carboxylic acid tert-butyl ester] | – | < 0.1 | 1 to 10 |
| COCC(=O)N1CCC[C@@]1(C)C(=O)N1CCN(c2ccc(C(=O)Nc3cc(OC(F)(F)F)c(-c4ccc(-c5c[nH]c([C@@H]6CCCN6C(=O)[C@@H](NC(=O)OC)C(C)C)n5)cc4)cc3OC)cn2)[C@H](C)C1 [Example 27-31] | < 0.1 | < 0.1 | – |
| CNC(=O)N1CCN(c2ccc(C(=O)Nc3ccc(-c4ccc(-c5c[nH]c([C@@H]6CCCN6C(=O)[C@@H](NC(=O)OC)C(C)C)n5)cc4)c(C(F)(F)F)c3)cn2)[C@H](C)C1 [Example 36] | 0.1 to 1 | < 0.1 | – |
| COC(=O)N[C@H](C(=O)N1CCC[C@H]1c1nc(-c2ccc(-c3cc(F)c(NC(=O)c4ccc(N5CCN(C(=O)[C@]6(C)CCCN6C(=O)[C@@H](N)C(C)C)C[C@H]5C)nc4)cc3OC(F)(F)F)cc2)c[nH]1)C(C)C [Example 27-44] | < 0.1 | < 0.1 | – |
| COC(=O)N[C@H](C(=O)N1CCC[C@H]1c1nc(-c2ccc(-c3ccc(NC(=O)c4ccc(N5CCN(C(=O)C(C)(C)C)CC5)cc4)cc3)cc2)c[nH]1)C(C)C [Example 2, ((S)-1-{(S)-2-[4-(4′-{4-[4-(2,2-Dimethyl-propionyl)-piperazin-1-yl]-benzoylamino}-biphenyl-4-yl)-1H-imidazol-2-yl]-pyrrolidine-1-carbonyl}-2-methyl-propyl)-carbamic acid methyl ester] | – | < 0.1 | 1 to 10 |
| CNC(=O)N1CCN(c2ccc(C(=O)Nc3cc(OC(F)(F)F)c(-c4ccc(-c5c[nH]c([C@@H]6CCCN6C(=O)[C@@H](NC(=O)OC)C(C)C)n5)cc4)cc3F)cn2)[C@H](C)C1 [Example 53, ((S)-1-{(S)-2-[4-(5′-Fluoro-4′-{[6-OR)-2-methyl-4-methylcarbamoyl-piperazin-1-yl)-pyridine-3-carbonyl]-amino}-2′-trifluoromethoxy-biphenyl-4-yl)-1H-imidazol-2-yl]-pyrrolidine-1-carbonyl}-2-methyl-propyl)-carbamic acid methyl ester] | < 0.1 | < 0.1 | – |
| CNC(=O)N1CCC[C@@]1(C)C(=O)N1CCN(c2ccc(C(=O)Nc3cc(OC(F)(F)F)c(-c4ccc(-c5c[nH]c([C@@H]6CCCN6C(=O)[C@@H](NC(=O)OC)C(C)C)n5)cc4)cc3Cl)cn2)[C@H](C)C1 [Example 27-73] | < 0.1 | < 0.1 | – |
| CCOc1cc(NC(=O)c2ccc(N3CCN(C(=O)[C@]4(C)CCCN4C(=O)[C@@H](NC(=O)OC)C(C)C)C[C@H]3C)nc2)ccc1-c1ccc(-c2c[nH]c([C@@H]3CCCN3C(=O)[C@@H](NC(=O)OC)C(C)C)n2)cc1 [Example 21, [(S)-1-((S)-2-{4-[2′-Ethoxy-4′-({6-[(R)-4-((S)-1-{(S)-2-methoxycarbonylamino-3-methyl-butyryl}-2-methyl-pyrrolidine-2-carbonyl)-2-methyl-piperazin-1-yl]-pyridine-3-carbonyl}-amino)-biphenyl-4-yl]-1H-imidazol-2-yl}-pyrrolidine-1-carbonyl)-2-methyl-propyl]-carbamic acid methyl ester] | < 0.1 | < 0.1 | – |
| COC(=O)N[C@H](C(=O)N1CCC[C@H]1c1nc(-c2ccc(-c3cc(Cl)c(NC(=O)c4ccc(N5C[C@H](C)N(C(=O)c6c[nH]cn6)C[C@H]5C)nc4)cc3OC(F)(F)F)cc2)c[nH]1)C(C)C [Example 28-39] | < 0.1 | < 0.1 | – |
| COC(=O)N[C@H](C(=O)N1CCC[C@H]1c1nc(-c2ccc(-c3ccc(NC(=O)c4ccc(N5CCN(C(=O)c6c[nH]cn6)C[C@H]5C)nc4)cc3C(F)(F)F)cc2)c[nH]1)C(C)C [Example 37] | 0.1 to 1 | < 0.1 | – |
| COC(=O)N[C@H](C(=O)N1CCC[C@H]1c1nc(-c2ccc(-c3ccc(NC(=O)c4ccc(N5CCN(C(=O)[C@H]6CC6(C)C)C[C@H]5C)nc4)cc3C(F)(F)F)cc2)c[nH]1)C(C)C [Example 34, [(S)-1-((S)-2-{5-[4′-({6-[(R)-4-((S)-2,2-Dimethyl-cyclopropanecarbonyl)-2-methyl-piperazin-1-yl]-pyridine-3-carbonyl}-amino)-2′-trifluoromethyl-biphenyl-4-yl]-1H-imidazol-2-yl}-pyrrolidine-1-carbonyl)-2-methyl-propyl]-carbamic acid methyl ester] | < 0.1 | < 0.1 | – |
| COC(=O)N[C@H](C(=O)N1CCC[C@H]1c1nc(-c2ccc(-c3cc(F)c(NC(=O)c4ccc(N5C[C@H](C)N(C(=O)[C@H]6CC6(C)C)C[C@H]5C)nc4)cc3OC(F)(F)F)cc2)c[nH]1)C(C)C [Example 57] | < 0.1 | < 0.1 | – |
| COCCNC(=O)N1CCN(c2ccc(C(=O)Nc3cc(OC(F)(F)F)c(-c4ccc(-c5c[nH]c([C@@H]6CCCN6C(=O)[C@@H](NC(=O)OC)C(C)C)n5)cc4)cc3F)cn2)[C@H](C)C1 [Example 27-38] | < 0.1 | < 0.1 | – |
| COC(=O)N[C@H](C(=O)N1CCC[C@H]1c1nc(-c2ccc(-c3cc(F)c(NC(=O)c4ccc(N5C[C@H](C)N(C(=O)c6cc[nH]n6)C[C@H]5C)nc4)cc3OC(F)(F)F)cc2)c[nH]1)C(C)C [Example 60] | < 0.1 | < 0.1 | – |
| COC(=O)N[C@H](C(=O)N1CCC[C@H]1c1nc(-c2ccc(-c3cc(F)c(NC(=O)c4ccc(N5CCN(C(=O)[C@]6(C)CCCN6C(=O)CN(C)C)C[C@H]5C)nc4)cc3OC(F)(F)F)cc2)c[nH]1)C(C)C [Example 27-50] | < 0.1 | < 0.1 | – |
| COCC(=O)N1CCC[C@@]1(C)C(=O)N1CCN(c2ccc(C(=O)Nc3cc(OC(F)(F)F)c(-c4ccc(-c5c[nH]c([C@@H]6CCCN6C(=O)[C@@H](NC(=O)OC)C(C)C)n5)cc4)cc3F)cn2)[C@H](C)C1 [Example 27-46] | < 0.1 | < 0.1 | – |
| COCCNC(=O)N1CCC[C@@]1(C)C(=O)N1CCN(c2ccc(C(=O)Nc3cc(OC(F)(F)F)c(-c4ccc(-c5c[nH]c([C@@H]6CCCN6C(=O)[C@@H](NC(=O)OC)C(C)C)n5)cc4)cc3F)cn2)[C@H](C)C1 [Example 27-45] | < 0.1 | < 0.1 | – |
| COC(=O)N[C@H](C(=O)N1CCC[C@H]1c1nc(-c2ccc(-c3ccc(NC(=O)c4ccc(N5C[C@H](C)N(C(=O)c6c[nH]cn6)C[C@H]5C)nc4)cc3OC(F)(F)F)cc2)c[nH]1)C(C)C [Example 32] | < 0.1 | < 0.1 | – |
| COC(=O)N[C@H](C(=O)N1CCC[C@H]1c1nc(-c2ccc(-c3cc(F)c(NC(=O)c4ccc(N5CCN(C(=O)[C@H]6CC6(C)C)C[C@H]5C)nc4)cc3C(F)(F)F)cc2)c[nH]1)C(C)C [Example 51, [(S)-1-((S)-2-{4-[4′-({6-[(R)-4-((S)-2,2-Dimethyl-cyclopropanecarbonyl)-2-methyl-piperazin-1-yl]-pyridine-3-carbonyl}-amino)-5′-fluoro-2′-trifluoromethyl-biphenyl-4-yl]-1H-imidazol-2-yl}-pyrrolidine-1-carbonyl)-2-methyl-propyl]carbamic acid methyl ester] | < 0.1 | < 0.1 | – |
| COC(=O)N[C@H](C(=O)N1CCC[C@H]1c1nc(-c2ccc(-c3cc(F)c(NC(=O)c4ccc(N5CCN(C(=O)CNC(C)=O)C[C@H]5C)nc4)cc3OC(F)(F)F)cc2)c[nH]1)C(C)C [Example 27-37] | < 0.1 | < 0.1 | – |
| COC(=O)N[C@H](C(=O)N1CCC[C@H]1c1nc(-c2ccc(-c3ccc(NC(=O)c4ccc(N5C[C@H](C)N(C(=O)C6CC6)C[C@H]5C)nc4)cc3OC(F)(F)F)cc2)c[nH]1)C(C)C [Example 30] | < 0.1 | < 0.1 | – |
| COC(=O)N[C@H](C(=O)N1CCC[C@H]1c1nc(-c2ccc(-c3ccc(NC(=O)c4ccc(N5CCN(C(=O)C6CC6)C[C@H]5C)nc4)cc3F)cc2)c[nH]1)C(C)C [Example 46] | 0.1 to 1 | < 0.1 | – |
